≈ marks a conversion by molar mass, not a printed value.
Columns and labels:
Format in all cases: cell-based
[1] = system: Akkermansia muciniphila ATCC BAA-835; experiment: Antimicrobial susceptibility, broth microdilution MIC (CLSI), type strain; settings: for MIC: Akkermansia muciniphila, ATCCBAA835, broth microdilution, read-out: MIC, test strain ATCC BAA-835
[2] = system: Bacteroides thetiotaomicron ATCC 29741; experiment: Antimicrobial susceptibility, broth microdilution MIC (CLSI), QC strain; set-up: MIC, QC ATCC 297415: unit not given beside the values; settings: for MIC: Bacteroides, ATCC 29741 / ATCC 297415, read-out: MIC, QC ATCC 297415
[3] = system: Akkermansia muciniphila EB-AMDK39 strain; experiment: Antimicrobial susceptibility, broth microdilution MIC (CLSI), isolated strain; settings: for MIC: Akkermansia muciniphila, EBAMDK39STRAIN, read-out: MIC, test strain EB-AMDK39, broth microdilution

| Compound | MIC [1] | MIC [2] | MIC [3] | further results |
| --- | --- | --- | --- | --- |
| COc1c(N2C[C@@H]3CCCN[C@@H]3C2)c(F)cc2c(=O)c(C(=O)O)cn(C3CC3)c12 [MXF, moxifloxacin] | > 32 µg/mL | 8 µg/mL (≈ 19.9 µM) | > 32 µg/mL | Susceptibility category by MIC breakpoints, MXF ([1]; ATCC BAA-835, MXF breakpoints): R (≥8); Susceptibility category by MIC breakpoints, MXF ([3]; EB-AMDK39, MXF breakpoints): R (≥8) |
| O=C(N[C@H](CO)[C@H](O)c1ccc([N+](=O)[O-])cc1)C(Cl)Cl [CHL, chloramphenicol] | 4 µg/mL (≈ 12.4 µM) | 8 µg/mL (≈ 24.8 µM) | 8 µg/mL (≈ 24.8 µM) | Susceptibility category by MIC breakpoints, CHL ([1]; ATCC BAA-835, CHL breakpoints): S (≤8); Susceptibility category by MIC breakpoints, CHL ([3]; EB-AMDK39, CHL breakpoints): S (≤8) |
| Cc1ncc([N+](=O)[O-])n1CCO [MTZ, metronidazole] | ≤ 0.25 µg/mL | 2 µg/mL (≈ 11.7 µM) | 1 µg/mL (≈ 5.84 µM) | Susceptibility category by MIC breakpoints, MTZ ([1]; ATCC BAA-835, MTZ breakpoints): S (≤8); Susceptibility category by MIC breakpoints, MTZ ([3]; EB-AMDK39, MTZ breakpoints): S (≤8) |
| C[C@@H](O)[C@H]1C(=O)N2C(C(=O)O)=C(S[C@@H]3CN[C@H](C(=O)N(C)C)C3)[C@H](C)[C@H]12 [MEM, meropenem] | 1 µg/mL (≈ 2.61 µM) | 0.5 µg/mL (≈ 1.3 µM) | 4 µg/mL (≈ 10.4 µM) | Susceptibility category by MIC breakpoints, MEM ([1]; ATCC BAA-835, MEM breakpoints): S (≤4); Susceptibility category by MIC breakpoints, MEM ([3]; EB-AMDK39, MEM breakpoints): S (≤4) |
| CO/N=C(\C(=O)N[C@@H]1C(=O)N2C(C(=O)O)=CCS[C@H]12)c1csc(N)n1 [CTZ, ceftizoxime] | 2 µg/mL (≈ 5.22 µM) | 16 µg/mL (≈ 41.7 µM) | 256 µg/mL (≈ 668 µM) | Susceptibility category by MIC breakpoints, CTZ ([1]; ATCC BAA-835, CTZ breakpoints): S (≤32); Susceptibility category by MIC breakpoints, CTZ ([3]; EB-AMDK39, CTZ breakpoints): R (≥128) |
| CCC[C@@H]1C[C@@H](C(=O)N[C@@H]([C@H]2O[C@H](SC)[C@H](O)[C@@H](O)[C@H]2O)[C@H](C)Cl)N(C)C1 [CLI, clindamycin] | ≤ 0.125 µg/mL |  | > 64 µg/mL | Susceptibility category by MIC breakpoints, CLI ([1]; ATCC BAA-835, CLI breakpoints): S (≤2); Susceptibility category by MIC breakpoints, CLI ([3]; EB-AMDK39, CLI breakpoints): R (≥8) |
| Piperacillin-tazobactam [PTZ] |  |  |  | Susceptibility category by MIC breakpoints, PTZ ([1]; ATCC BAA-835, PTZ breakpoints): S (≤32/4); MIC, QC ATCC 297415 ([2]; broth microdilution, QC strain): 8/4; Susceptibility category by MIC breakpoints, PTZ ([3]; EB-AMDK39, PTZ breakpoints): S (≤32/4) |
